In patent US20110190130A1, “SYNERGISTIC HERBICIDAL COMPOSITION CONTAINING AMINOPYRALID AND 2,4-DICHLOROPHENOXYACETIC ACID” (DOW AGROSCIENCES LLC, priority 2010, published 2011):

Assays:
Type in all cases: in vivo
[1] = test system: rice flatsedge (Cyperus iria, CYPIR); assay: Postemergence herbicidal activity of mixtures under field conditions, rice flatsedge; conditions: 27 days after application
Protocol: (§1) These trials were conducted under field conditions in Tolima, Colombia. Trial sites were located in commercially grown fields of common rice (Oryza sativa). The rice crop was grown using normal cultural practices for fertilization, seeding, and maintenance to ensure good growth of the crop and the weeds. The trials were conducted using normal research methodology. Trial plots were 3 meters (m) wide by 6 m long. All treatments were applied using a randomized complete block trial design with 4 replications per treatment. The trial sites had naturally occurring populations of weeds. The weed spectrum included, but was not limited to, rice flatsedge (Cyperus iria, CYPIR); purple nutsedge (Cyperus rotundus, CYPRO); and common purslane, (Portulaca oleracea, POROL). The plots were treated with a postemergence foliar application 15 to 20 days after emergence of the rice.
(§2) Treatments consisted of tank mixes of soluble granules of aminopyralid tri-isopropanolammonium salt and commercially available formulations of 2,4-D (DMA 6 herbicide, water dispersible granules). The application volume was 160 liters per hectare (L/ha) of water. All application were made using precision gas hand sprayers using a 3 m boom using flat fan) (80° nozzles to broadcast the treatments over the top of the rice.
(§3) The treated plots and control plots were rated blind at various intervals after application. Ratings were based of Percent (%) Visual weed control, where 0 corresponds to no injury and 100 corresponds to complete kill.
(§4) Colby's equation was used to determine the herbicidal effects expected from the mixtures (Colby, S. R. Calculation of the synergistic and antagonistic response of herbicide combinations. Weeds 1967 15, 20-22).
(§5) The following equation was used to calculate the expected activity of mixtures containing two active ingredients, A and B:
(§6) A=observed efficacy of active ingredient A at the same concentration as used in the mixture;
(§7) B=observed efficacy of active ingredient B at the same concentration as used in the mixture.

[2] = test system: purple nutsedge (Cyperus rotundus, CYPRO); assay: Postemergence herbicidal activity of mixtures under field conditions, purple nutsedge; conditions: 27 days after application, rice
Protocol: as §1, §2, §3, §4, §5, §6, §7

[3] = test system: common purslane (Portulaca oleracea, POROL); assay: Postemergence herbicidal activity of mixtures under field conditions, common purslane; conditions: 27 days after application, rice
Protocol: as §1, §2, §3, §4, §5, §6, §7

[4] = aminopyralid 9 grams ae/ha alone
[5] = aminopyralid 12 grams ae/ha alone

Row | SMILES | % Control CYPIR Obs ([1]; 2,4-D 180 grams ae/ha alone) [%] | % Control CYPIR Obs ([1]; 2,4-D 240 grams ae/ha alone) [%] | % Control CYPRO Obs ([2]; 2,4-D 180 grams ae/ha alone) [%] | % Control CYPRO Obs ([2]; 2,4-D 240 grams ae/ha alone) [%] | % Control POROL Obs ([3]; 2,4-D 180 grams ae/ha alone) [%] | % Control POROL Obs ([3]; 2,4-D 240 grams ae/ha alone) [%] | % Control CYPIR Obs [1, 4] [%] | % Control CYPIR Obs [1, 5] [%] | % Control CYPRO Obs [2, 4] [%] | % Control CYPRO Obs [2, 5] [%] | % Control POROL Obs [3, 4] [%] | % Control POROL Obs [3, 5] [%]
1 | O=C(O)COc1ccc(Cl)cc1Cl [2,4-D, 2,4-dichlorophenoxyacetic acid] | 45 | 46 | 38 | 60 | 20 | 39 | – | – | – | – | – | –
2 | Nc1cc(Cl)nc(C(=O)O)c1Cl [Aminopyralid, 4-amino-3,6-dichloro-2-pyridinecarboxylic acid] | – | – | – | – | – | – | 0 | 13 | 0 | 0 | 41 | 53
